Test results reported in patent US4742053A, “3-Isoquinoliniomethyl cephalosporin derivatives” (Banyu Pharmaceutical Co., Ltd., priority 1984, dated 1988).
Values after ≈ are worked out from the molar mass of the structure shown. Like-named read-outs stand apart in the source and are kept apart here.

Legend:
Experiment in all cases: MIC by agar plate dilution method
Format in all cases: cell-based
A. calcoaceticus No. 14 = details: 10^6 CFU/ml; for MIC: Acinetobacter calcoaceticus, NO.14, A. calcoaceticus No. 14, read-out: Minimum Inhibitory Concentration
Protocol: (§1) The minimum inhibitory concentrations (MIC: μg/ml) of the compounds of the present invention against various microorganisms were measured by an agar plate dilution method (inoculum size: 10^6 CFU/ml) by using Sensitivity Disk Agar (Nissui) in comparison with Cefotaxime and Ceftazidime as comparative compounds.
(§2) Minimum Inhibitory Concentration (μg/ml; 10^6 CFU/ml)

C. freundii No. 7 = details: C. freundii No. 7, 10^6 CFU/ml; for MIC: Citrobacter freundii, read-out: Minimum Inhibitory Concentration
Protocol: as §1, §2

E. cloaceae Nek 39 = details: E. cloaceae Nek 39, 10^6 CFU/ml; for MIC: read-out: Minimum Inhibitory Concentration
Protocol: as §1, §2

E. coli C/Rms149 = details: 10^6 CFU/ml; for MIC: Escherichia coli, read-out: Minimum Inhibitory Concentration, E. coli C/Rms149
Protocol: as §1, §2

E. coli CSH2 = details: 10^6 CFU/ml; for MIC: Escherichia coli, read-out: Minimum Inhibitory Concentration
Protocol: as §1, §2

E. coli CSH = details: 10^6 CFU/ml; for MIC: Escherichia coli, read-out: Minimum Inhibitory Concentration
Protocol: as §1, §2

E. coli ML1410/Rte16 = details: 10^6 CFU/ml; for MIC: Escherichia coli, ML1410/RTE16, read-out: Minimum Inhibitory Concentration, E. coli ML1410/Rte16
Protocol: as §1, §2

E. coli NIHJJC-2 = details: 10^6 CFU/ml; for MIC: Escherichia coli, NIHJJC2, E. coli NIHJJC-2, read-out: Minimum Inhibitory Concentration
Protocol: as §1, §2

E. coli W3630/Rms212 = details: 10^6 CFU/ml; for MIC: Escherichia coli, W3630/RMS212, read-out: Minimum Inhibitory Concentration, E. coli W3630/Rms212
Protocol: as §1, §2

E. coli W3630/Rms213 = details: 10^6 CFU/ml; for MIC: Escherichia coli, W3630/RMS213, read-out: Minimum Inhibitory Concentration, E. coli W3630/Rms213
Protocol: as §1, §2

K. pneumoniae No. 42 = details: K. pneumoniae No. 42, 10^6 CFU/ml; for MIC: Klebsiella pneumoniae, read-out: Minimum Inhibitory Concentration
Protocol: as §1, §2

P. aeruginosa AK109 = details: 10^6 CFU/ml; for Minimum Inhibitory Concentration: P. aeruginosa AK109; for MIC: Pseudomonas aeruginosa, AK109, P. aeruginosa AK109, read-out: Minimum Inhibitory Concentration
Protocol: as §1, §2

P. aeruginosa AKR17 = details: 10^6 CFU/ml; for MIC: Pseudomonas aeruginosa, AKR17, P. aeruginosa AKR17, read-out: Minimum Inhibitory Concentration
Protocol: as §1, §2

P. cepacia 23 = details: P. cepacia 23, 10^6 CFU/ml; for MIC: Burkholderia cepacia, read-out: Minimum Inhibitory Concentration
Protocol: as §1, §2

P. mirabilis JY10 = details: P. mirabilis JY10, 10^6 CFU/ml; for MIC: Proteus mirabilis, read-out: Minimum Inhibitory Concentration
Protocol: as §1, §2

P. vulgaris No. 33 = details: P. vulgaris No. 33, 10^6 CFU/ml; for MIC: Proteus vulgaris, read-out: Minimum Inhibitory Concentration
Protocol: as §1, §2

P. vulgaris OB1043 = details: 10^6 CFU/ml; for MIC: Proteus vulgaris, OB1043, P. vulgaris OB1043, read-out: Minimum Inhibitory Concentration
Protocol: as §1, §2

S. aureus JS-1 = details: S. aureus JS-1, 10^6 CFU/ml; for MIC: Staphylococcus aureus, JS1, read-out: Minimum Inhibitory Concentration
Protocol: as §1, §2

S. aureus NIHJJC-1 = details: for MIC: Staphylococcus aureus
Protocol: as §1, §2

S. marcescens No. 16-2 = details: S. marcescens No. 16-2, 10^6 CFU/ml; for MIC: Serratia marcescens, NO.162, read-out: Minimum Inhibitory Concentration
Protocol: as §1, §2

P. maltophilia IID 1275 = details: Stenotrophomonas maltophilia, IID1275; P. maltophilia IID 1275; 10^6 CFU/ml; read-out: Minimum Inhibitory Concentration
Protocol: as §1, §2

[1] = NIHJJC1, S. aureus NIHJJC-1, 10^6 CFU/ml, read-out: Minimum Inhibitory Concentration

Compound	MIC (A. calcoaceticus No. 14) [µg/mL]	MIC (C. freundii No. 7) [µg/mL]	MIC (E. cloaceae Nek 39) [µg/mL]	MIC (E. coli C/Rms149) [µg/mL]	MIC (E. coli CSH2) [µg/mL]	MIC (E. coli CSH) [µg/mL]	MIC (E. coli ML1410/Rte16) [µg/mL]	MIC (E. coli NIHJJC-2) [µg/mL]	MIC (E. coli W3630/Rms212) [µg/mL]	MIC (E. coli W3630/Rms213) [µg/mL]	MIC (K. pneumoniae No. 42) [µg/mL]	MIC (P. aeruginosa AKR17) [µg/mL]	MIC (P. cepacia 23) [µg/mL]	MIC (P. mirabilis JY10) [µg/mL]	MIC (P. vulgaris No. 33) [µg/mL]	MIC (P. vulgaris OB1043) [µg/mL]	MIC (S. aureus JS-1) [µg/mL]	MIC (S. aureus NIHJJC-1; [1]) [µg/mL]	MIC (S. marcescens No. 16-2) [µg/mL]	MIC (P. aeruginosa AK109) [µg/mL]	other results
CC(C)(O/N=C(\C(=O)NC1C(=O)N2C(C(=O)[O-])=C(C[N+]3(C)CCc4ccccc4C3)CSC12)c1csc(N)n1)C(=O)O (single isomer, unassigned) [Isomer A of Ex. 8-E, 7-[(Z)-2-(2-aminothiazol-4-yl)-2-(1-carboxy-1-methylethoxyimino)acetamido]-3-(2-methyl-1,2,3,4-tetrahydro-2-isoquinolinium)methyl-3-cephem-4-carboxylate]	25 (≈ 40.7 µM)	1.56 (≈ 2.54 µM)	1.56 (≈ 2.54 µM)	0.2 (≈ 0.325 µM)	0.1 (≈ 0.163 µM)	0.1 (≈ 0.163 µM)	0.2 (≈ 0.325 µM)	0.2 (≈ 0.325 µM)	0.39 (≈ 0.634 µM)	0.39 (≈ 0.634 µM)	0.78 (≈ 1.27 µM)	25 (≈ 40.7 µM)	6.25 (≈ 10.2 µM)	0.2 (≈ 0.325 µM)	0.1 (≈ 0.163 µM)	0.1 (≈ 0.163 µM)	> 25	6.25 (≈ 10.2 µM)	3.12 (≈ 5.08 µM)	–	Minimum Inhibitory Concentration (P. aeruginosa AK109): 6.25 µg/mL
CC(C)(O/N=C(\C(=O)NC1C(=O)N2C(C(=O)[O-])=C(C[N+]3(C)CCc4ccccc4C3)CSC12)c1csc(N)n1)C(=O)O (single isomer, unassigned) [Isomer B of Ex. 8-E, 7-[(Z)-2-(2-aminothiazol-4-yl)-2-(1-carboxy-1-methylethoxyimino)acetamido]-3-(2-methyl-1,2,3,4-tetrahydro-2-isoquinolinium)methyl-3-cephem-4-carboxylate]	–	–	–	–	–	–	–	–	–	–	–	–	–	–	–	–	–	–	–	–	Minimum Inhibitory Concentration (A. calcoaceticus No. 14; A. calcoaceticus No. 14): > 25 µg/mL; Minimum Inhibitory Concentration (C. freundii No. 7): 1.56 µg/mL; Minimum Inhibitory Concentration (E. cloaceae Nek 39): 3.12 µg/mL; Minimum Inhibitory Concentration (E. coli C/Rms149; E. coli C/Rms149): 0.39 µg/mL; Minimum Inhibitory Concentration (E. coli CSH2): 0.1 µg/mL; Minimum Inhibitory Concentration (E. coli CSH): 0.2 µg/mL; Minimum Inhibitory Concentration (E. coli ML1410/Rte16; E. coli ML1410/Rte16): 0.39 µg/mL; Minimum Inhibitory Concentration (E. coli NIHJJC-2; E. coli NIHJJC-2): 0.39 µg/mL; Minimum Inhibitory Concentration (E. coli W3630/Rms212; E. coli W3630/Rms212): 0.78 µg/mL; Minimum Inhibitory Concentration (E. coli W3630/Rms213; E. coli W3630/Rms213): 0.78 µg/mL; Minimum Inhibitory Concentration (K. pneumoniae No. 42): 0.78 µg/mL; Minimum Inhibitory Concentration (P. aeruginosa AK109): 3.12 µg/mL; Minimum Inhibitory Concentration (P. aeruginosa AKR17; P. aeruginosa AKR17): > 25 µg/mL; Minimum Inhibitory Concentration (P. cepacia 23): 6.25 µg/mL; Minimum Inhibitory Concentration (P. mirabilis JY10): 0.2 µg/mL; Minimum Inhibitory Concentration (P. vulgaris No. 33): 0.1 µg/mL; Minimum Inhibitory Concentration (P. vulgaris OB1043; P. vulgaris OB1043): 0.2 µg/mL; Minimum Inhibitory Concentration (S. aureus JS-1): > 25 µg/mL; Minimum Inhibitory Concentration (S. aureus NIHJJC-1; S. aureus NIHJJC-1, 10^6 CFU/ml): 12.5 µg/mL; Minimum Inhibitory Concentration (S. marcescens No. 16-2): 3.12 µg/mL
CO/N=C(\C(=O)NC1C(=O)N2C(C(=O)[O-])=C(C[N+]3(C)CCc4ccccc4C3)CSC12)c1csc(N)n1 (stereo not shown) [Ex. 1-B, 7-[(Z)-2-(2-aminothiazol-4-yl)-2-methoxyiminoacetamido]-3-(2-methyl-1,2,3,4-tetrahydro-2-isoquinolinium)methyl-3-cephem-4-carboxylate]	25 (≈ 46.1 µM)	1.56 (≈ 2.87 µM)	1.56 (≈ 2.87 µM)	0.1 (≈ 0.184 µM)	0.05 (≈ 0.0921 µM)	0.2 (≈ 0.369 µM)	–	0.1 (≈ 0.184 µM)	0.2 (≈ 0.369 µM)	1.56 (≈ 2.87 µM)	0.2 (≈ 0.369 µM)	> 25	–	0.78 (≈ 1.44 µM)	0.2 (≈ 0.369 µM)	0.78 (≈ 1.44 µM)	3.12 (≈ 5.75 µM)	0.78 (≈ 1.44 µM)	6.25 (≈ 11.5 µM)	6.25 (≈ 11.5 µM)	–
CO/N=C(\C(=O)NC1C(=O)N2C(C(=O)[O-])=C(C[N+]3(C)CCc4cc(OC)c(OC)cc4C3)CSC12)c1csc(N)n1 (stereo not shown) [Ex. 2-E, 7-[(Z)-2-(2-aminothiazol-4-yl)-2-methoxyiminoacetamido]-3-(6,7-dimethoxy-2-methyl-1,2,3,4-tetrahydro-2-isoquinolinium)methyl-3-cephem-4-carboxylate]	> 25	12.5 (≈ 20.7 µM)	12.5 (≈ 20.7 µM)	0.78 (≈ 1.29 µM)	0.2 (≈ 0.332 µM)	1.56 (≈ 2.59 µM)	0.78 (≈ 1.29 µM)	0.78 (≈ 1.29 µM)	1.56 (≈ 2.59 µM)	3.12 (≈ 5.18 µM)	1.56 (≈ 2.59 µM)	> 25	–	3.12 (≈ 5.18 µM)	1.56 (≈ 2.59 µM)	3.12 (≈ 5.18 µM)	12.5 (≈ 20.7 µM)	–	> 25	25 (≈ 41.5 µM)	MIC (S. aureus NIHJJC-1; NIHJJC1, read-out: Minimum Inhibitory Concentration): 1.56 µg/mL (≈ 2.59 µM)
CCO/N=C(\C(=O)NC1C(=O)N2C(C(=O)[O-])=C(C[N+]3(C)CCc4ccccc4C3)CSC12)c1csc(N)n1 (stereo not shown) [Ex. 7-D, 7-[(Z)-2-(2-aminothiazol-4-yl)-2-ethoxyiminoacetamido]-3-(2-methyl-1,2,3,4-tetrahydro-2-isoquinolinium)methyl-3-cephem-4-carboxylate]	25 (≈ 44.9 µM)	3.12 (≈ 5.6 µM)	3.12 (≈ 5.6 µM)	0.39 (≈ 0.701 µM)	0.1 (≈ 0.18 µM)	0.2 (≈ 0.359 µM)	0.39 (≈ 0.701 µM)	0.39 (≈ 0.701 µM)	0.78 (≈ 1.4 µM)	0.78 (≈ 1.4 µM)	0.78 (≈ 1.4 µM)	> 25	6.25 (≈ 11.2 µM)	3.12 (≈ 5.6 µM)	0.39 (≈ 0.701 µM)	0.78 (≈ 1.4 µM)	6.25 (≈ 11.2 µM)	0.39 (≈ 0.701 µM)	6.25 (≈ 11.2 µM)	6.25 (≈ 11.2 µM)	–
CO/N=C(\C(=O)NC1C(=O)N2C(C(=O)[O-])=C(C[N+]3(C)CCc4cc(OC(C)=O)ccc4C3)CSC12)c1csc(N)n1 (stereo not shown) [Ex. 9, 7-[(Z)-2-(2-aminothiazol-4-yl)-2-methoxyiminoacetamido]-3-(6-acetoxy-2-methyl-1,2,3,4-tetrahydro-2-isoquinolinium)methyl-3-cephem-4-carboxylate]	> 25	6.25 (≈ 10.4 µM)	1.56 (≈ 2.6 µM)	0.2 (≈ 0.333 µM)	0.1 (≈ 0.166 µM)	1.56 (≈ 2.6 µM)	0.2 (≈ 0.333 µM)	0.2 (≈ 0.333 µM)	0.2 (≈ 0.333 µM)	3.12 (≈ 5.19 µM)	0.78 (≈ 1.3 µM)	25 (≈ 41.6 µM)	12.5 (≈ 20.8 µM)	1.56 (≈ 2.6 µM)	0.39 (≈ 0.649 µM)	0.78 (≈ 1.3 µM)	12.5 (≈ 20.8 µM)	0.39 (≈ 0.649 µM)	12.5 (≈ 20.8 µM)	3.12 (≈ 5.19 µM)	MIC (P. maltophilia IID 1275): > 25 µg/mL
